{"source": "patent US20130137767A1", "about": "“Methods and Compositions for Treating Arthritis with Docosahexaenoic Acid” (DSM IP ASSETS B.V., priority 2010, published 2013)", "key": {"anti-collagen antibodies": {"system": "anti-collagen antibodies", "experiment": "CIA EE vs. TG (Example 2): serum anti-collagen antibodies", "type": "in vivo, Male DBA/1O1aHsd mice", "settings": "for serum anti-collagen antibodies: day 21", "description": "(§1) Male DBA/1O1aHsd mice were enrolled, quarantined, and feed study diets following the protocols described in Example 1 (CIA-EE Study). EE and TG oils were blended into the base diet to provide 2500 mg/kg PUFA per day (HED approximately 12 g/day). A single dose of PUFA per day (HED approximately 5 g/day). The 1000 mg/kg DHA-EE dose was equivalent to the amount of DHA administered in the DHA/EPA-EE blend. The fat blend the 2500 mg/kg EE diets consisted of approximately: 1 part flax, 12 parts HCOC and 23 parts HO-SAFF; 1000 mg/kg EE diet: 1 part flax, 12 parts HCOC and 32 parts HO-SAFF; 2500 mg/kg DHASCO® oil diet: 1 part flax, 8 parts HCOC, 17 parts HO-SAFF and 15 parts soybean oil; 2500 mg/kg DHA-S oil diet: 1 part flax, 5 parts HCOC, 16 parts HO-SAFF and 6 parts soybean oil. 2500 mg/kg DHA/EPA (Nordic Naturals fish oil) diet: 1 part flax, 21 parts HCOC, 18 parts HO-SAFF and 13 parts soybean oil. The monounsaturate control animals received a fat blend of 1 part flax, 7 parts HCOC and 25 parts HO-SAFF. All study diets provided a total of 7% fat. Animals in the No Disease control and Dexamethasone groups were fed the diet containing OA-EE. Mice received collagen injections on day 0 and day 21, as described previously. Blood samples were collected at day 21 and day 45. At day 45, joints were collected for histology and pathology.\nA reduction in serum anti-collagen antibodies also correlated with a reduction in disease severity. […] (FIG. 12)."}, "[1]": {"system": "Collagen-Induced Arthritis (CIA)", "experiment": "CIA EE vs. TG (Example 2): paw, knee and six-joint histopathology", "type": "in vivo, Male DBA/1O1aHsd mice", "settings": "day 45", "description": "as §1, with “pathology. Placebo-treated diseased animals had histopathology changes, consistent with those seen in type II collagen induced arthritis, in most joints, with scores ranging from normal to severe. Microscopic alteration included infiltration of synovium and periarticular tissue with neutrophils and mononuclear inflammatory cells (inflammation), marginal zone pannus and bone resorption and cartilage damage (proteoglycan loss, chondrocyte death and collagen matrix destruction). Four-paw, knee and joint parameters were assigned a quantitative score 0=normal, 1=minimal, 2=mild, 3=moderate, 4=marked, 5=severe and a total score was determined per animal.” for “pathology.”"}}, "data": [{"smiles": "CC/C=C\\C/C=C\\C/C=C\\C/C=C\\C/C=C\\C/C=C\\CCC(=O)OCC", "note": "[DHA-EE]", "values": [{"measurement": "serum anti-collagen antibodies", "setting": "anti-collagen antibodies; 1000 mg/kg", "value": "significantly reduced"}, {"measurement": "serum anti-collagen antibodies", "setting": "anti-collagen antibodies; 2500 mg/kg PUFA, FIG. 12", "value": "significantly reduced"}, {"measurement": "serum anti-collagen antibody levels", "setting": "anti-collagen antibodies; day 45, 2500 mg/kg PUFA, FIG. 12", "value": "significantly reduced"}, {"measurement": "knee histopathology parameters", "setting": "[1]; 1000 mg/kg", "value": "not significantly affected"}, {"measurement": "paw histopathology parameters", "setting": "[1]; 1000 mg/kg", "value": "not significantly affected"}, {"measurement": "six-joint histopathology parameters", "setting": "[1]; 1000 mg/kg", "value": "not significantly affected"}, {"measurement": "six-joint histopathology parameters", "setting": "[1]; 2500 mg/kg PUFA, FIG. 10", "value": "significantly reduced towards normal"}, {"measurement": "paw histopathology parameters (inflammation, pannus, cartilage damage, bone damage)", "setting": "[1]; 2500 mg/kg PUFA, vs placebo control, FIG. 10", "value": "reduced"}]}]}
